Values of other authors as cited in patent publication US20150148324A1 (VALPHARMA INTERNATIONAL S.P.A., priority 2012, published 2015).

Tested on: uterine fibroma
Details: daily oral 5 mg for 6 months, versus higher doses

Compound: CC#C[C@]1(O)CC[C@H]2[C@@H]3CCC4=CC(=O)CCC4=C3[C@@H](c3ccc(N(C)C)cc3)C[C@@]21C [Mifepristone]
- effect in the treatment of uterine fibroma: effects comparable with those of higher doses of Mifepristone
